Key:
Conditions in all cases: Homo sapiens
RPMI-8226 = assay: In vitro inhibitory activity against […] cancer cell lines; type: functional
HL-60 = assay: In vitro inhibitory activity against HL-60 cancer cell lines; type: functional
HCT-15 = assay: In vitro inhibitory activity against HCT-15 colon cancer cell lines; type: functional
K562 = assay: In vitro inhibitory activity against K-562 cancer cell lines; type: functional
MCF7 = assay: In vitro inhibitory activity against MCF-7 breast cancer cell lines; type: functional
MOLT-4 = assay: In vitro inhibitory activity against MOLT-4 cancer cell lines; type: functional
CAKI-1 = assay: In vitro inhibitory activity against CAKI-1 […] cancer cell lines; type: functional
HT-29 = assay: In vitro inhibitory activity against HT-29 colon cancer cell lines; type: functional
UO-31 = assay: In vitro inhibitory activity against UO-31 renal cancer cell lines; type: functional
MDA-MB-435 = assay: In vitro inhibitory activity against MDA-MB-435 breast cancer cell lines; type: functional
SR = assay: In vitro inhibitory activity against SR cancer cell lines; type: functional
A498 = assay: In vitro inhibitory activity against A-498 […] cancer cell lines; type: functional
OVCAR-5 = assay: In vitro inhibitory activity against OVCAR-5 ovarian cancer cell lines; type: functional
SF-295 = assay: In vitro inhibitory activity against SF-295 […] cancer cell lines; type: functional
NCI-H23 = assay: In vitro inhibitory activity against NIC-H23 lung cancer cell lines
MDA-N = assay: In vitro inhibitory activity against MDA-N breast cancer cell lines; type: functional
SK-MEL-5 = assay: In vitro inhibitory activity against SK-MEL-5 melanoma cancer cell lines; type: functional

Structure (SMILES): COc1cc(OC)c2[nH]c3c(O)c(-c4c(C)cc5c([nH]c6c(OC)cc(OC)cc65)c4O)c(C)cc3c2c1
- GI50 (RPMI-8226): 10.5 µM
- GI50 (HL-60): 2.82 µM
- GI50 (HCT-15): 8.28 µM
- GI50 (K562): 9.7 µM
- GI50 (MCF7): 8.68 µM
- GI50 (MOLT-4): 8.59 µM
- GI50 (CAKI-1): 9.89 µM
- GI50 (HT-29): 8.03 µM
- GI50 (UO-31): 6.84 µM
- GI50 (MDA-MB-435): 12 µM
- GI50 (SR): 9.01 µM
- GI50 (A498): 7.82 µM
- GI50 (OVCAR-5): 9.03 µM
- GI50 (SF-295): 10.2 µM
- GI50 (NCI-H23): 8.2 µM
- GI50 (MDA-N): 8.83 µM
- GI50 (SK-MEL-5): 8.38 µM

Structure (SMILES): Cc1cc2c([nH]c3ccccc32)c(O)c1-c1c(C)cc2c([nH]c3ccccc32)c1O
- GI50 (RPMI-8226): 3.85 µM
- GI50 (HL-60): 32.9 µM
- GI50 (HCT-15): 10.1 µM
- GI50 (K562): 12.3 µM
- GI50 (MCF7): 11.2 µM
- GI50 (MOLT-4): 3.62 µM
- GI50 (CAKI-1): 14.7 µM
- GI50 (HT-29): 6.04 µM
- GI50 (UO-31): 13 µM
- GI50 (MDA-MB-435): 15 µM
- GI50 (SR): 3.16 µM
- GI50 (A498): 15.9 µM
- GI50 (OVCAR-5): 15 µM
- GI50 (SF-295): 17.4 µM
- GI50 (NCI-H23): 12.4 µM
- GI50 (MDA-N): 14.7 µM
- GI50 (SK-MEL-5): 16.5 µM

Structure (SMILES): COc1ccc2[nH]c3c(O)c(-c4c(C)cc5c([nH]c6ccc(OC)cc65)c4O)c(C)cc3c2c1
- GI50 (RPMI-8226): 3.61 µM
- GI50 (HL-60): 0.0321 µM
- GI50 (HCT-15): 4.2 µM
- GI50 (K562): 4.04 µM
- GI50 (MCF7): 4.49 µM
- GI50 (MOLT-4): 3.23 µM
- GI50 (CAKI-1): 4.27 µM
- GI50 (HT-29): 3.71 µM
- GI50 (UO-31): 3.78 µM
- GI50 (MDA-MB-435): 4.34 µM
- GI50 (SR): 3.97 µM
- GI50 (A498): 4.78 µM
- GI50 (OVCAR-5): 3.82 µM
- GI50 (SF-295): 5.11 µM
- GI50 (NCI-H23): 4.48 µM
- GI50 (MDA-N): 4.5 µM
- GI50 (SK-MEL-5): 4.34 µM

From ChEMBL document CHEMBL1132869, “The first synthesis of clausenamine-A and cytotoxic activities of three biscarbazole analogues against cancer cells” (2000)
